The record followed here is ChEMBL document CHEMBL5528066, “Discovery of Novel N-(Anthracen-9-ylmethyl) Benzamide Derivatives as ZNF207 Inhibitors Promising in Treating Glioma” (J Med Chem, 2024).

The structures appear in SMILES notation. Active and inactive are the calls of the source. The rule behind the calls is not given here.

One assay relates to U-251. In words: Induction of apoptosis in human U-251MG cells assessed as apoptotic cells at 2.5 uM incubated for 24 hrs by Annexin V-FITC/PI staining based flow cytometry analysis relative to control. The format is functional.
For assay [1], the system named is LN-229. In words: Inhibition of sphere formation in human LN-229 cells at 4 uM measured after 10 days in well containing 10000 cells by microscopic analysis. The assay is classed as functional, cell-based. The following applies: time 10.0 day.
In assay [2] the test system is LN-229. In words: Inhibition of sphere formation in human LN-229 cells at 4 uM measured after 10 days in well containing 1 cells by microscopic analysis. The assay is classed as functional, cell-based. Conditions: time 10.0 day.

`N#CC1(C(=O)NCCC2CCN(Cc3ccccc3)CC2)CC2(Br)c3ccccc3C1c1ccccc12` (racemic): the Activity in the assay with U-251 was approximately 20%. Moreover, the inhibition entry in the assay on LN-229 [1] is “inactive”. Moreover, the inhibition entry in the assay with LN-229 [2] is “Active”.
